Data from US20090221559A1 (priority 2005, published 2009).
Like-named read-outs stand apart in the source and are kept apart here.

Key:
[1] = system: HCV replicon RNA replication in Huh-7 luc/neo (Huh-Luc) cells; assay: HCV replicon assay (stable replicon cell reporter assay, luciferase read-out); format: cell-based, HCV type 1b
How it was run: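 Three-day compound exposure used Huh-Luc cells, which harbour an autonomously replicating genotype 1b NS3-NS5B replicon expressing luciferase and neo^R. Luciferase signal served as the replication read-out, and dose-response curves came from several concentrations per compound.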

[2] = molecular target: T1, HCV NS5B polymerase (His-tagged, C-terminal 21 amino acid deleted NS5B, HC-J4) (Hepatitis C virus genotype 1b, UniProt O92972); assay: NS5b polymerase assay (biochemical RdRp assay, 3H-GTP incorporation, SPA beads); design: species or system HCV genotype 1b
T1 construct: The cDNA encoding NS5B amino acid 1-570 (HC-J4, genotype 1b); His tag (His6, from pET-21b) (C); made in house; host or cells: E. coli BL21 (DE3)
T1 sequence (O92972 2417-3000, looked up, stated change not applied): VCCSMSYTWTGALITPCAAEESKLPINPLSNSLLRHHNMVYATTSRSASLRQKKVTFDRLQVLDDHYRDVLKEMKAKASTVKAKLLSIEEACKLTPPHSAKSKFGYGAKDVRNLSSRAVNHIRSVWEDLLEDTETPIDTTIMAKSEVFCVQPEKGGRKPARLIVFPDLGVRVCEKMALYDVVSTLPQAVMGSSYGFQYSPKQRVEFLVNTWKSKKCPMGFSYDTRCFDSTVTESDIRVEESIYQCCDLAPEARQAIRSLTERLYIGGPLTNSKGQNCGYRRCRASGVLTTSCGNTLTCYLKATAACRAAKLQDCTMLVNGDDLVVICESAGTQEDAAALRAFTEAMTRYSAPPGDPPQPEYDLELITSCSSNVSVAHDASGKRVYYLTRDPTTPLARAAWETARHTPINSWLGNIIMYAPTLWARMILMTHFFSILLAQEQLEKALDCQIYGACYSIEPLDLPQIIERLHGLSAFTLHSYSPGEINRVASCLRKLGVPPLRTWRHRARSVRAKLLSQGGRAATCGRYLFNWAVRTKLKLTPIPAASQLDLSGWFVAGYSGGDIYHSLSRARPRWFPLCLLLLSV
How it was run: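 3H-GTP incorporation into newly made RNA was captured on SPA beads added in EDTA after 2 h at 25 °C. Compounds in DMSO met preformed enzyme–template complex (200 nM truncated His-NS5B, HC-J4 1b; biotin-oligo(rG13)/poly(rC)) for 15 min at RT, then 600 nM GTP, 5 mM MgCl2, Tris pH 7.5 started polymerization.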

[3] = Hepatitis C virus, Huh-7, 72 h, read-out: Replicon Assay EC50 (μM), Huh-Luc cells, incubation of three days, luciferase activity
[4] = NS5B Polymerase Assay IC50 (μM)
[5] = Hepatitis C virus, Huh-7, 72 h, read-out: Replicon Assay EC50, Huh-Luc cells, three days incubation, luciferase activity
[6] = NS5B Polymerase Assay IC50, 200 nM enzyme, 3H-GTP incorporation, 2 h at 25° C.
[7] = read-out: Replicon Assay EC50, Huh-Luc cells, incubation of three days, luciferase activity
[8] = read-out: NS5B Polymerase Assay IC50
[9] = Huh-Luc cells, three days incubation, luciferase activity, read-out: Replicon Assay EC50
[10] = 200 nM enzyme, 3H-GTP incorporation, 2 h at 25° C., read-out: NS5B Polymerase Assay IC50

Structure (SMILES)	EC50 [1, 3]	IC50 [2, 4]	EC50 [1, 5]	IC50 [2, 6]	further results
CCCOc1ccc(C2Nc3ccccc3NC3=C2C(=O)CC(c2ccc(OC)cc2)C3)cc1OC (centres unmarked) [compound 394]	14.1 µM	> 42.7 µM	–	–	–
O=C1CC(c2ccccc2)CC2=C1C(c1ccccc1OCc1ccccc1)Nc1ccccc1N2 (centres unmarked) [compound 365]	5.24 µM	27.3 µM	–	–	–
COc1ccc(C2CC(=O)C3=C(C2)Nc2ccccc2NC3c2cc(OC)c(OC)cc2OC)cc1 (centres unmarked) [compound 398]	10.9 µM	> 42.7 µM	–	–	–
CC1(C)CC(=O)C2=C(C1)Nc1ccccc1N(C(=O)C(F)(F)F)C2c1ccc(-c2ccc([N+](=O)[O-])cc2)o1 (centres unmarked) [compound 257]	–	–	22.4 µM	> 42.7 µM	–
CC1(C)CC(=O)C2=C(C1)Nc1ccccc1N(C(=O)c1ccccc1)C2c1ccc(Cl)cc1 (centres unmarked) [compound 88]	–	–	6.1 µM	18.5 µM	–
COc1ccc(C2CC(=O)C3=C(C2)Nc2ccccc2NC3c2ccccc2Cl)cc1 (centres unmarked) [compound 383]	17.3 µM	> 42.7 µM	–	–	–
CCC(=O)N1c2ccccc2NC2=C(C(=O)CC(C)(C)C2)C1c1ccc(OC)c(OC)c1 (centres unmarked) [compound 84]	–	–	20.9 µM	> 42.7 µM	–
CCCCCC(=O)N1c2ccccc2NC2=C(C(=O)CC(c3ccc(Cl)cc3)C2)C1c1ccc(Cl)cc1 (centres unmarked) [compound 164]	–	–	18.5 µM	> 33.3 µM	–
CC1(C)CC(=O)C2=C(C1)Nc1cc(C(=O)c3ccccc3)ccc1NC2c1ccccc1Cl (centres unmarked) [compound 463]	7.43 µM	> 33.3 µM	–	–	–
COc1ccc([C@@H]2CC(=O)C3=C(C2)Nc2ccccc2N[C@H]3c2c[nH]c3ccccc23)cc1 [compound 489]	5.91 µM	> 42.7 µM	–	–	–
O=C1C[C@@H](c2ccc3c(c2)OCO3)CC2=C1[C@H](c1cc3c(cc1Br)OCO3)Nc1ccccc1N2 [compound 493]	1.3 µM	> 42.7 µM	–	–	–
CCC(=O)N1c2ccccc2NC2=C(C(=O)CC(C)(C)C2)C1c1c(Cl)cccc1Cl (centres unmarked) [compound 46]	–	–	11.1 µM	> 42.7 µM	–
O=C1CC(c2ccccc2OCc2ccccc2)CC2=C1C(c1cccc(OCc3ccccc3)c1)Nc1ccccc1N2 (single isomer, unassigned) [compound 418, 3-(2-Benzyloxyphenyl)-11-(3-benzyloxyphenyl)-2,3,4,5,10,11-hexahydro-dibenzo[b,e][1,4]diazepin-1-one]	–	–	–	–	EC50 [1, 7]: 2.16 µM; IC50 [2, 8]: > 42.7 µM
COc1ccc(C2CC(=O)C3=C(C2)Nc2ccccc2NC3c2ccccc2OC)cc1OC (centres unmarked) [compound 369]	10 µM	> 42.7 µM	–	–	–
CC1(C)CC(=O)C2=C(C1)Nc1ccccc1N(C(=O)Cc1ccc(Cl)cc1)C2c1ccco1 (centres unmarked) [compound 253]	–	–	8.7 µM	> 42.7 µM	–
CC1(C)CC(=O)C2=C(C1)Nc1ccccc1N(C(=O)Cc1ccccc1)C2c1ccc(Cl)cc1 (centres unmarked) [compound 20]	–	–	6.58 µM	> 42.6 µM	–
COc1ccc(C2C3=C(CC(C)(C)CC3=O)Nc3ccccc3N2C(=O)CC(C)C)cc1 (centres unmarked) [compound 41]	–	–	8.44 µM	> 42.7 µM	–
O=C1CC(c2ccccc2OCc2ccccc2)CC2=C1C(c1ccc(Cl)cc1Cl)Nc1ccccc1N2 (single isomer, unassigned) [compound 417, 3-(2-Benzyloxyphenyl)-11-(2,4-dichlorophenyl)-2,3,4,5,10,11-hexahydro-dibenzo[b,e][1,4]diazepin-1-one]	–	–	–	–	EC50 [1, 7]: 8.33 µM; IC50 [2, 8]: > 42.7 µM
CC1(C)CC(=O)C2=C(C1)Nc1ccccc1NC2c1ccc(F)cc1F (centres unmarked) [compound 441, 11-(2,4-difluorophenyl)-3,3-dimethyl-2,3,4,5,10,11-hexahydro-1H-dibenzo[b,e][1,4]diazepin-1-one]	> 100 µM	> 133 µM	–	–	–
O=C1CC(c2ccccc2OCc2ccccc2)CC2=C1C(C(Br)=Cc1ccccc1)Nc1ccccc1N2 (mixture of isomers) [compound 498]	–	–	–	–	EC50 ([1]; Huh-Luc cells, incubation of three days, luciferase activity, read-out: Replicon Assay EC50): 2.92 µM; IC50 [2, 8]: > 133 µM
COc1ccc([C@@H]2CC(=O)C3=C(C2)Nc2ccccc2N[C@H]3c2ccc(C)s2)cc1 [compound 490]	24.9 µM	> 42.7 µM	–	–	–
COc1ccc(C2CC(=O)C3=C(C2)Nc2ccccc2N(C(=O)C(F)(F)F)C3c2ccc(C)cc2)cc1 (mixture of isomers) [compound 196]	–	–	–	–	EC50 [1, 9]: 7.32 µM; IC50 [2, 10]: > 33.3 µM
Cc1ccc(C2CC(=O)C3=C(C2)Nc2ccccc2NC3c2ccccc2)cc1 (centres unmarked) [compound 414]	13.6 µM	> 33.3 µM	–	–	–

Structure (SMILES)	EC50 [1, 3]	IC50 [2, 4]	EC50 [1, 5]	IC50 [2, 6]	further results
COc1ccc(OC)c(C2C3=C(CC(C)(C)CC3=O)Nc3ccccc3N2C(=O)c2ccccc2)c1 (centres unmarked) [compound 72]	–	–	23.6 µM	> 42.7 µM	–
CCOc1ccc(C2C3=C(CC(C)(C)CC3=O)Nc3ccccc3N2C(=O)C(F)(F)F)cc1 (centres unmarked) [compound 2]	–	–	26.5 µM	> 42.7 µM	–
CN(C)c1ccc(C2C3=C(CC(C)(C)CC3=O)Nc3ccccc3N2C(=O)Nc2ccc(Cl)c(Cl)c2)cc1 (centres unmarked) [compound 76]	–	–	6.27 µM	> 33.3 µM	–
CC(=O)N1c2ccccc2NC2=C(C(=O)CC(c3ccccc3OCc3ccccc3)C2)C1C(Br)=Cc1ccccc1 (centres unmarked) [compound 300]	–	–	–	–	EC50 [1, 9]: 0.706 µM; IC50 [2, 10]: > 133 µM
CCCCC(=O)N1c2ccccc2NC2=C(C(=O)CC(C)(C)C2)C1c1ccc(Cl)cc1Cl (centres unmarked) [compound 17]	–	–	6.59 µM	> 42.7 µM	–
COc1ccc(C2C3=C(CC(c4ccc(Cl)cc4)CC3=O)Nc3ccccc3N2C(=O)C(F)(F)F)cc1 (mixture of isomers) [compound 200]	–	–	–	–	EC50 [1, 9]: 9.57 µM; IC50 [2, 10]: > 33.3 µM
CC(=O)N1c2ccccc2NC2=C(C(=O)CC(C)(C)C2)C1c1c(Cl)cc(OCc2ccccc2)cc1Cl (centres unmarked) [compound 150, 10-acetyl-11-(4-benzyloxy-2,6-dichlorophenyl)-3,3-dimethyl-2,3,4,5,10,11-hexahydro-1H-dibenzo[b,e][1,4]diazepin-1-one]	–	–	1.69 µM	> 133 µM	–
COc1ccc(C2Nc3ccccc3NC3=C2C(=O)CC(c2ccc(Cl)cc2)C3)cc1OC (centres unmarked) [compound 352]	9.61 µM	> 42.7 µM	–	–	–
COc1c(Cl)cc(Cl)cc1C1C2=C(CC(C)(C)CC2=O)Nc2ccccc2N1C(C)=O (centres unmarked) [compound 73]	–	–	19.9 µM	> 42.7 µM	–
COc1ccc(OC)c(C2Nc3ccccc3NC3=C2C(=O)CC(c2ccc(OC)c(OC)c2)C3)c1 (centres unmarked) [compound 371]	3.74 µM	> 42.7 µM	–	–	–
CC1(C)CC(=O)C2=C(C1)Nc1ccccc1NC2c1cccc(Oc2ccccc2Br)c1 (centres unmarked) [compound 446, 11-[3-(2-bromophenoxy)phenyl]-3,3-dimethyl-2,3,4,5,10,11-hexahydro-1H-dibenzo[b,e][1,4]diazepin-1-one]	4.12 µM	> 133 µM	–	–	–
COc1cccc(C2C3=C(CC(C)(C)CC3=O)Nc3ccccc3N2C(C)=O)c1 (centres unmarked) [compound 105]	–	–	> 32 µM	> 42.7 µM	–
CC1(C)CC(=O)C2=C(C1)Nc1ccccc1NC2c1ccc(OC(F)(F)F)cc1 (centres unmarked) [compound 434, 11-(4-trifluoromethyloxyphenyl)-3,3-dimethyl-2,3,4,5,10,11-hexahydro-1H-dibenzo[b,e][1,4]diazepin-1-one]	22.9 µM	> 133 µM	–	–	–
COc1ccc([C@@H]2CC(=O)C3=C(C2)Nc2ccccc2N[C@H]3c2cccc3ccccc23)cc1OC [compound 496]	22.9 µM	> 42.7 µM	–	–	–
O=C1CC(c2ccccc2)CC2=C1C(c1cccc(Oc3ccccc3)c1)Nc1ccccc1N2 (centres unmarked) [compound 361]	6.65 µM	> 42.7 µM	–	–	–
CCOc1cc(C2Nc3ccccc3NC3=C2C(=O)CC(c2ccc(OC)c(OC)c2)C3)cc(Br)c1O (centres unmarked) [compound 399]	19.4 µM	> 42.7 µM	–	–	–
COc1cc2c(cc1OC)N(C(C)=O)C(c1ccc(Cl)cc1Cl)C1=C(CC(C)(C)CC1=O)N2 (centres unmarked) [compound 309, 10-acetyl-7,8-dimethoxy-11-(2,4-dichlorophenyl)-3,3-dimethyl-2,3,4,5,10,11-hexahydro-1H-dibenzo[b,e][1,4]diazepin-1-one]	–	–	39.6 µM	> 133 µM	–
CCn1c2ccccc2c2cc(C3Nc4cc(C)c(C)cc4NC4=C3C(=O)CC(C)(C)C4)ccc21 (centres unmarked) [compound 504]	17.1 µM	39.1 µM	–	–	–
Cc1ccc(C2CC(=O)C3=C(C2)Nc2ccccc2NC3c2ccccc2Cl)cc1 (centres unmarked) [compound 411]	17.9 µM	> 33.3 µM	–	–	–
CCCOc1ccccc1C1C2=C(CC(C)(C)CC2=O)Nc2ccccc2N1C(=O)CC (centres unmarked) [compound 63]	–	–	5 µM	> 42.7 µM	–
CC1(C)CC(=O)C2=C(C1)Nc1ccccc1NC2c1c(F)cccc1Cl (centres unmarked) [compound 428]	16 µM	> 42.7 µM	–	–	–
CC(C)CC(=O)N1c2ccccc2NC2=C(C(=O)CC(C)(C)C2)C1c1cccs1 (centres unmarked) [compound 248]	–	–	7.24 µM	> 42.6 µM	–
O=C1CC(c2ccccc2OCc2ccccc2)CC2=C1C(c1ccc(Cl)cc1Cl)Nc1ccccc1N2 (single isomer, unassigned) [compound 419, 3-(2-Benzyloxyphenyl)-11-(2,4-dichlorophenyl)-2,3,4,5,10,11-hexahydro-dibenzo[b,e][1,4]diazepin-1-one]	4.82 µM	> 42.7 µM	–	–	–
